Reference: ChEMBL document CHEMBL1201861, “Genomics of Drug Sensitity in Cancer screening data, Wellcome Trust Sanger Institute”

Legend:
Assay in all cases: cells
Assay type in all cases: functional, cell-based, Homo sapiens
SCH = settings: Homo sapiens, SCH
Description: SANGER: Inhibition of human SCH cell growth in a cell viability assay.

EW-1 = settings: Homo sapiens, EW-1
Description: SANGER: Inhibition of human EW-1 cell growth in a cell viability assay.

NB17 = settings: Homo sapiens, NB17
Description: SANGER: Inhibition of human NB17 cell growth in a cell viability assay.

LS-123 = settings: Homo sapiens, LS-123
Description: SANGER: Inhibition of human LS-123 cell growth in a cell viability assay.

BV-173 = settings: Homo sapiens, BV-173
Description: SANGER: Inhibition of human BV-173 cell growth in a cell viability assay.

HDLM-2 = settings: Homo sapiens, HDLM-2
Description: SANGER: Inhibition of human HDLM-2 cell growth in a cell viability assay.

NCI-H1770 = settings: Homo sapiens, NCI-H1770
Description: SANGER: Inhibition of human NCI-H1770 cell growth in a cell viability assay.

TGBC24TKB = settings: Homo sapiens, TGBC24TKB
Description: SANGER: Inhibition of human TGBC24TKB cell growth in a cell viability assay.

SW 954 = settings: Homo sapiens, SW 954
Description: SANGER: Inhibition of human SW954 cell growth in a cell viability assay.

D-247MG = settings: Homo sapiens, D-247MG
Description: SANGER: Inhibition of human D-247MG cell growth in a cell viability assay.

NCI-H1299 = settings: Homo sapiens, NCI-H1299
Description: SANGER: Inhibition of human NCI-H1299 cell growth in a cell viability assay.

HCC 2998 = settings: Homo sapiens, HCC 2998
Description: SANGER: Inhibition of human HCC2998 cell growth in a cell viability assay.

CGTH-W-1 = settings: Homo sapiens, CGTH-W-1
Description: SANGER: Inhibition of human CGTH-W-1 cell growth in a cell viability assay.

LOX IMVI = settings: Homo sapiens, LOX IMVI
Description: SANGER: Inhibition of human LOXIMVI cell growth in a cell viability assay.

OVCAR-4 = settings: Homo sapiens, OVCAR-4
Description: SANGER: Inhibition of human OVCAR-4 cell growth in a cell viability assay.

IST-MEL1 = settings: Homo sapiens, IST-MEL1
Description: SANGER: Inhibition of human IST-MEL1 cell growth in a cell viability assay.

K562 = settings: Homo sapiens, K562
Description: SANGER: Inhibition of human K-562 cell growth in a cell viability assay.

NB10 = settings: Homo sapiens, NB10
Description: SANGER: Inhibition of human NB10 cell growth in a cell viability assay.

OCI-AML2 = settings: Homo sapiens, OCI-AML2
Description: SANGER: Inhibition of human OCI-AML2 cell growth in a cell viability assay.

Mo = settings: Homo sapiens, Mo
Description: SANGER: Inhibition of human Mo-T cell growth in a cell viability assay.

no-11 = settings: Homo sapiens
Description: SANGER: Inhibition of human no-11 cell growth in a cell viability assay.

RPMI-8866 = settings: Homo sapiens, RPMI-8866
Description: SANGER: Inhibition of human RPMI-8866 cell growth in a cell viability assay.

EW-18 = settings: Homo sapiens, EW-18
Description: SANGER: Inhibition of human EW-18 cell growth in a cell viability assay.

DU-4475 = settings: Homo sapiens, DU-4475
Description: SANGER: Inhibition of human DU-4475 cell growth in a cell viability assay.

KINGS-1 = settings: Homo sapiens, KINGS-1
Description: SANGER: Inhibition of human KINGS-1 cell growth in a cell viability assay.

DJM-1 = settings: Homo sapiens, DJM-1
Description: SANGER: Inhibition of human DJM-1 cell growth in a cell viability assay.

RPMI-8226 = settings: Homo sapiens, RPMI-8226
Description: SANGER: Inhibition of human RPMI-8226 cell growth in a cell viability assay.

NCI-H526 = settings: Homo sapiens, NCI-H526
Description: SANGER: Inhibition of human NCI-H526 cell growth in a cell viability assay.

TE-6 = settings: Homo sapiens, TE-6
Description: SANGER: Inhibition of human TE-6 cell growth in a cell viability assay.

KALS-1 = settings: Homo sapiens, KALS-1
Description: SANGER: Inhibition of human KALS-1 cell growth in a cell viability assay.

L-363 = settings: Homo sapiens, L-363
Description: SANGER: Inhibition of human L-363 cell growth in a cell viability assay.

NCI-H1304 = settings: Homo sapiens, NCI-H1304
Description: SANGER: Inhibition of human NCI-H1304 cell growth in a cell viability assay.

NCI-H1581 = settings: Homo sapiens, NCI-H1581
Description: SANGER: Inhibition of human NCI-H1581 cell growth in a cell viability assay.

RXF 393 = settings: Homo sapiens, RXF 393
Description: SANGER: Inhibition of human RXF393 cell growth in a cell viability assay.

DMS-79 = settings: Homo sapiens, DMS-79
Description: SANGER: Inhibition of human DMS-79 cell growth in a cell viability assay.

SF-268 = settings: Homo sapiens, SF-268
Description: SANGER: Inhibition of human SF268 cell growth in a cell viability assay.

SCC-15 = settings: Homo sapiens, SCC-15
Description: SANGER: Inhibition of human SCC-15 cell growth in a cell viability assay.

RH-1 = settings: Homo sapiens, RH-1
Description: SANGER: Inhibition of human RH-1 cell growth in a cell viability assay.

MOLT-4 = settings: Homo sapiens, MOLT-4
Description: SANGER: Inhibition of human MOLT-4 cell growth in a cell viability assay.

Ramos-2G6-4C10 = settings: Homo sapiens, Ramos-2G6-4C10
Description: SANGER: Inhibition of human Ramos-2G6-4C10 cell growth in a cell viability assay.

OCUB-M = settings: Homo sapiens, OCUB-M
Description: SANGER: Inhibition of human OCUB-M cell growth in a cell viability assay.

U-266 = settings: Homo sapiens, U-266
Description: SANGER: Inhibition of human U-266 cell growth in a cell viability assay.

PSN1 = settings: Homo sapiens, PSN1
Description: SANGER: Inhibition of human PSN1 cell growth in a cell viability assay.

MS-1 = settings: Homo sapiens, MS-1
Description: SANGER: Inhibition of human MS-1 cell growth in a cell viability assay.

SW982 = settings: Homo sapiens, SW982
Description: SANGER: Inhibition of human SW982 cell growth in a cell viability assay.

SK-MEL-2 = settings: Homo sapiens, SK-MEL-2
Description: SANGER: Inhibition of human SK-MEL-2 cell growth in a cell viability assay.

GB-1 = settings: Homo sapiens, GB-1
Description: SANGER: Inhibition of human GB-1 cell growth in a cell viability assay.

GAK = settings: Homo sapiens, GAK
Description: SANGER: Inhibition of human GAK cell growth in a cell viability assay.

UACC-257 = settings: Homo sapiens, UACC-257
Description: SANGER: Inhibition of human UACC-257 cell growth in a cell viability assay.

## CO[C@H]1C[C@@H]2CC[C@@H](C)[C@@](O)(O2)C(=O)C(=O)N2CCCC[C@H]2C(=O)O[C@H]([C@H](C)C[C@@H]2CC[C@@H](OC(=O)C(C)(CO)CO)[C@H](OC)C2)CC(=O)[C@H](C)/C=C(\C)[C@@H](O)[C@@H](OC)C(=O)[C@H](C)C[C@H](C)/C=C/C=C/C=C/1C [TEMSIROLIMUS]
SCH
  IC50: > 200 nM
EW-1
  IC50: > 200 nM
NB17
  IC50: > 200 nM
LS-123
  IC50: > 200 nM
BV-173
  IC50: 43.8 nM
HDLM-2
  IC50: > 200 nM
NCI-H1770
  IC50: > 200 nM
TGBC24TKB
  IC50: 141 nM
SW 954
  IC50: > 200 nM
D-247MG
  IC50: > 200 nM
NCI-H1299
  IC50: 186 nM
HCC 2998
  IC50: > 200 nM
CGTH-W-1
  IC50: 5.75 nM
LOX IMVI
  IC50: 120 nM
OVCAR-4
  IC50: > 200 nM
IST-MEL1
  IC50: 123 nM
K562
  IC50: > 200 nM
NB10
  IC50: > 200 nM
OCI-AML2
  IC50: > 200 nM
Mo
  IC50: > 200 nM
no-11
  IC50: > 200 nM
RPMI-8866
  IC50: 31.4 nM
EW-18
  IC50: > 200 nM
DU-4475
  IC50: 11.7 nM
KINGS-1
  IC50: > 200 nM
DJM-1
  IC50: > 200 nM
RPMI-8226
  IC50: 4.15 nM
NCI-H526
  IC50: 61.6 nM
TE-6
  IC50: 189 nM
KALS-1
  IC50: 149 nM
L-363
  IC50: 0.242 nM
NCI-H1304
  IC50: > 200 nM
NCI-H1581
  IC50: > 200 nM
RXF 393
  IC50: 15.7 nM
DMS-79
  IC50: > 200 nM
SF-268
  IC50: > 200 nM
SCC-15
  IC50: 128 nM
RH-1
  IC50: > 200 nM
MOLT-4
  IC50: 4.31 nM
Ramos-2G6-4C10
  IC50: 0.342 nM
OCUB-M
  IC50: > 200 nM
U-266
  IC50: 151 nM
PSN1
  IC50: > 200 nM
MS-1
  IC50: > 200 nM
SW982
  IC50: > 200 nM
SK-MEL-2
  IC50: > 200 nM
GB-1
  IC50: > 200 nM
GAK
  IC50: > 200 nM
UACC-257
  IC50: > 200 nM
